Experimental data published in patent US20050049285A1, “Dichloropyridyl methyl cyanamidines” (priority 2000, published 2005).

Experiments:
[1] = test system: Erysiphe graminis f. sp. hordei; assay: Erysiphe-Test (barley)/induction of resistance; assay type: in vivo, Erysiphe graminis f. sp. hordei on barley; details: barley plants sprayed at 750 g/ha; inoculated 4 days after treatment; evaluated 7 days after inoculation; 0% = as control, 100% = no infection
Procedure: Erysiphe-Test (Barley)/Induction of Resistance
To produce a suitable preparation of active compound, 1 part by weight of active compound is mixed with the stated amounts of solvent and emulsifier, and the concentrate is diluted with water to the desired concentration.
To test for resistance-inducing activity, young cereal plants are sprayed with the preparation of active compound at the stated application rate. 4 days after the treatment, the plants are inoculated with spores of Erysiphe graminis f. sp. hordei. The plants are then placed in the greenhouse at 70% relative atmospheric humidity and a temperature of 18 C.
Evaluation is carried out 7 days after the inoculation. 0% means an efficacy which corresponds to that of the control, whereas an efficacy of 100% means that no infection is observed.

Molecule `CC/C(=N\C#N)NCc1cc(Cl)nc(Cl)c1` has an Efficacy in % [1] of 80%.

With `N#C/N=C/NCc1cc(Cl)nc(Cl)c1` [Example 1, N′-cyano-N-[(2,6-dichloro-4-pyridinyl)methyl]imidoformamide] the melting point was 160 °C.

In the case of `N#C/N=C/NCc1cc(Cl)nc(Cl)c1` [drawing 9], the Efficacy in % [1] is reported as 100%.

With `C/C(=N\C#N)NCc1cc(Cl)nc(Cl)c1` the Efficacy in % [1] was 95%.
